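Exposure lasted 48 hours, with cells grown in 96-well plates and compounds tested at five concentrations. TGI: concentration producing complete growth inhibition.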
What was measured:
Assay in all cases: growth of human tumour cells (NCI), 48 h
EKVX NSCLC = system: EKVX NSCLC
KM12 colon = system: KM12 colon
OVCAR-5 ovarian = system: OVCAR-5 ovarian
SN12C renal = system: SN12C renal
SK-MEL-28 melanoma = system: SK-MEL-28 melanoma
ACHN renal = system: ACHN renal
PC-3 prostate = system: PC-3 prostate
HOP-92 NSCLC = system: HOP-92 NSCLC
SF-539 CNS = system: SF-539 CNS
HCC-2998 colon = system: HCC-2998 colon
SK-MEL-5 melanoma = system: SK-MEL-5 melanoma
HCT-116 colon = system: HCT-116 colon
RPMI-8226 leukemia = system: RPMI-8226 leukemia

SMILES	TGI (EKVX NSCLC) [µM]	TGI (KM12 colon) [µM]	TGI (OVCAR-5 ovarian) [µM]	TGI (SN12C renal) [µM]	TGI (SK-MEL-28 melanoma) [µM]	TGI (ACHN renal) [µM]	TGI (PC-3 prostate) [µM]	TGI (HOP-92 NSCLC) [µM]	TGI (SF-539 CNS) [µM]	TGI (HCC-2998 colon) [µM]	TGI (SK-MEL-5 melanoma) [µM]	TGI (HCT-116 colon) [µM]	TGI (RPMI-8226 leukemia) [µM]
Cn1c2ccccc2c2c(-c3ccccc3)cc3c(c21)C(=O)C=CC3=O	> 8.39	> 8.77	> 10	5.76	4.34	3.04	> 6.39	3.78	4.29	> 8.05	> 9.24	2.91	4.8
CNC1=C(C)C(=O)C(=O)C([C@H](C)CCC=C(C)C)=C1O	> 100	> 100	> 100	> 100	> 100	39.4	98.7	> 100	–	99.3	41.4	> 100	> 94.3
COC1(OC)c2no[n+]([O-])c2CCC1O (centres undefined)	> 100	> 100	> 100	> 100	> 100	> 100	> 100	> 100	> 100	> 100	> 100	> 100	> 100
O=C(NC1=NCC(CN2CCN(c3ccccc3)CC2)O1)Nc1ccccc1 (centres undefined)	> 100	> 100	> 100	> 100	> 100	> 100	> 100	> 100	–	> 100	> 100	> 100	> 100
NC(N)=N/N=C/c1c(-c2ccc(Cl)cc2)nc2sccn12	31.2	–	7.03	3.9	3.44	2.82	3.33	5.67	3.36	2.74	3.19	2.95	7.04
O=C(CC(=O)N(C(=O)/C=C\c1ccccc1)c1ccc(Cl)cc1)N1N=C(c2ccccc2)C(N=Nc2cccc([N+](=O)[O-])c2)C1=O (centres undefined)	> 100	38.7	> 100	> 100	98.1	> 100	14.4	> 100	25.8	> 100	–	13.5	93.4
O=c1oc2ccc3ccccc3c2cc1-c1cn2ccccc2n1	> 100	> 100	–	> 100	> 100	94.2	> 100	> 100	> 100	> 100	> 100	> 100	> 100
C(=C\c1cccs1)/c1cccc(/C=C/c2cccs2)n1	> 100	> 100	> 100	> 100	> 100	38.9	> 100	> 100	> 100	> 100	> 100	> 100	> 100
O=C1C(Cl)C2(CC(/C=C/c3ccccc3Cl)=NN2c2cccc(S(=O)(=O)O)c2)N1c1nc2ccccc2s1 (centres undefined)	> 100	> 100	> 100	> 100	> 100	> 100	> 100	> 100	37.6	> 100	> 100	> 100	89.9
Cc1ccc(S(=O)(=O)n2cc(-c3cc(C(F)(F)F)ccn3)c3cc(Br)ccc32)cc1	> 100	> 100	> 100	88	62.6	24.3	41.7	35.3	39.5	62.6	82.9	53	> 100
Cc1cc2ccccc2n2c1nc1ccccc12	> 100	> 100	> 100	> 100	> 100	> 100	> 100	> 100	> 100	> 100	> 100	> 100	> 100
C=CCN1C(=O)/C(=C/c2ccc(OC)cc2)N=C1SC/C=C/C	> 100	> 100	> 100	80.6	> 100	> 100	> 100	93.8	> 100	> 100	39.4	> 100	> 100
O=C(CN1CCCCC1)Nc1ccc2sc3ccccc3c(=O)c2n1	89.3	38.7	38.9	68.3	35.2	33.4	50.1	30	31.6	36.8	36.1	26.2	45.1
OC1(c2cccs2)c2cccc(Cl)c2C(O)(c2cccs2)c2c(Cl)cccc21 (centres undefined)	> 100	> 100	> 100	> 100	> 100	> 100	> 100	> 100	> 100	> 100	> 100	> 100	> 100
O=C1/C(=C\c2ccc(O)cc2)CCC/C1=C/c1ccc(Cl)c(Cl)c1	20	3.77	34.3	10.4	13.9	12.1	12.7	28.9	–	5.94	19.6	4.01	5.76
O=C1/C(=C/c2ccccc2O)N=C(c2ccccc2)N1C1Nc2cc3c(cc2S1)NC(N1C(=O)/C(=C/c2ccccc2O)N=C1c1ccccc1)S3 (centres undefined)	> 100	> 100	> 100	–	> 100	> 100	> 100	15	> 100	> 100	> 100	> 100	> 100
C=CCOc1cccc(C2(O)c3ccccc3C3=NCCCN32)c1 (centres undefined)	> 35.1	24.7	> 77.9	> 68.8	24.7	26.5	> 44.4	> 82.6	37.6	29.6	41.9	29.6	40.3
